Measurements as given in ChEMBL document CHEMBL5528002, “Identification of selective 5-LOX and FLAP inhibitors as novel anti-inflammatory agents by ligand-based virtual screening” (Eur J Med Chem, 2024).

Experiments:
Macrophage cell line [1] = test: Effect on lipid mediator formation in human M2-like phenotype MDM cells by measuring TXB2 formation at 10 uM pre-incubated for 15 mins followed by SACM stimulation and measured after 90 mins by UPLC-MS/MS analysis (reference value: 4488 +/- 452 pg/ml); format: functional; settings: time 105 min, 1.75 h
Macrophage cell line [2] = test: Effect on lipid mediator formation in human M1-like phenotype MDM cells by measuring arachidonic acid formation at 10 uM pre-incubated for 15 mins followed by SACM stimulation and measured after 90 mins by UPLC-MS/MS analysis relative to control; format: functional; settings: time 105 min, 1.75 h
Macrophage cell line [3] = test: Effect on lipid mediator formation in human M2-like phenotype MDM cells by measuring 5-HETE formation at 10 uM pre-incubated for 15 mins followed by SACM stimulation and measured after 90 mins by UPLC-MS/MS analysis relative to control; format: functional; settings: time 105 min, 1.75 h
Macrophage cell line [4] = test: Effect on lipid mediator formation in human M2-like phenotype MDM cells by measuring 5-HEPE formation at 10 uM pre-incubated for 15 mins followed by SACM stimulation and measured after 90 mins by UPLC-MS/MS analysis (reference value: 299 +/- 20 pg/ml); format: functional; settings: time 105 min, 1.75 h
Macrophage cell line [5] = test: Effect on lipid mediator formation in human M2-like phenotype MDM cells by measuring RvD2 formation at 10 uM pre-incubated for 15 mins followed by SACM stimulation and measured after 90 mins by UPLC-MS/MS analysis relative to control; format: functional; settings: time 105 min, 1.75 h
Macrophage cell line [6] = test: Effect on lipid mediator formation in human M2-like phenotype MDM cells by measuring 5,15-diHETE formation at 10 uM pre-incubated for 15 mins followed by SACM stimulation and measured after 90 mins by UPLC-MS/MS analysis (reference value: 1231 +/- 356 pg/ml); format: functional; settings: time 105 min, 1.75 h
Macrophage cell line [7] = test: Effect on lipid mediator formation in human M1-like phenotype MDM cells by measuring 14-HDHA formation at 10 uM pre-incubated for 15 mins followed by SACM stimulation and measured after 90 mins by UPLC-MS/MS analysis (reference value: 100 +/- 21 pg/ml); format: functional; settings: time 105 min, 1.75 h
Macrophage cell line [8] = test: Effect on lipid mediator formation in human M1-like phenotype MDM cells by measuring 17-HDHA formation at 10 uM pre-incubated for 15 mins followed by SACM stimulation and measured after 90 mins by UPLC-MS/MS analysis relative to control; format: functional; settings: time 105 min, 1.75 h
[9] = target: T1, Bifunctional epoxide hydrolase 2 (Homo sapiens) (UniProt P34913); test: Inhibition of human sEH assessed as enzyme remaining activity at 10 uM relative to control
T1 sequence (whole entry): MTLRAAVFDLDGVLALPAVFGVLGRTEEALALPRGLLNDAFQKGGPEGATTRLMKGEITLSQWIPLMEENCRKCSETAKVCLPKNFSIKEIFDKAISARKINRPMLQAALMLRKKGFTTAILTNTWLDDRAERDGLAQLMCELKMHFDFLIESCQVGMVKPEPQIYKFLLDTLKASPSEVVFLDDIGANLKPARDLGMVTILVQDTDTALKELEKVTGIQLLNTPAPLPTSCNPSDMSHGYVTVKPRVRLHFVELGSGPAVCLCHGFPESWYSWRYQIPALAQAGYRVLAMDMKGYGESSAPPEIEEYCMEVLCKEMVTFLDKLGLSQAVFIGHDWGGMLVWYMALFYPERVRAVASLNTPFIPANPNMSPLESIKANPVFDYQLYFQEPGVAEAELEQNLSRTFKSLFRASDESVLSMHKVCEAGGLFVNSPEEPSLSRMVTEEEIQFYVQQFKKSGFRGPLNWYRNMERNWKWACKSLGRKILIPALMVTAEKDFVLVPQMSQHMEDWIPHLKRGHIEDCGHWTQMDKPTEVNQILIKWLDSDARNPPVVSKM

Macrophage = test: Cytotoxicity against human MDM cells assessed as reduction in cell viability at 10 uM incubated for 24 hrs by MTT assay; format: toxicity, cell-based; settings: macrophage cell line
Macrophage cell line [10] = test: Effect on lipid mediator formation in human M2-like phenotype MDM cells by measuring DHA formation at 10 uM pre-incubated for 15 mins followed by SACM stimulation and measured after 90 mins by UPLC-MS/MS analysis relative to control; format: functional; settings: time 105 min, 1.75 h
Macrophage cell line [11] = test: Effect on lipid mediator formation in human M2-like phenotype MDM cells by measuring LTB4 formation at 10 uM pre-incubated for 15 mins followed by SACM stimulation and measured after 90 mins by UPLC-MS/MS analysis (reference value: 509 +/- 30 pg/ml); format: functional; settings: time 105 min, 1.75 h
Macrophage cell line [12] = test: Effect on lipid mediator formation in human M2-like phenotype MDM cells by measuring 12-HETE formation at 10 uM pre-incubated for 15 mins followed by SACM stimulation and measured after 90 mins by UPLC-MS/MS analysis (reference value: 3325 +/- 789 pg/ml); format: functional; settings: time 105 min, 1.75 h
Macrophage cell line [13] = test: Effect on lipid mediator formation in human M1-like phenotype MDM cells by measuring 5,15-diHETE formation at 10 uM pre-incubated for 15 mins followed by SACM stimulation and measured after 90 mins by UPLC-MS/MS analysis (reference value: 122 +/- 58 pg/ml); format: functional; settings: time 105 min, 1.75 h
Macrophage cell line [14] = test: Effect on lipid mediator formation in human M2-like phenotype MDM cells by measuring 17-HDHA formation at 10 uM pre-incubated for 15 mins followed by SACM stimulation and measured after 90 mins by UPLC-MS/MS analysis (reference value: 4702 +/- 885 pg/ml); format: functional; settings: time 105 min, 1.75 h
Macrophage cell line [15] = test: Effect on lipid mediator formation in human M1-like phenotype MDM cells by measuring 12-HEPE formation at 10 uM pre-incubated for 15 mins followed by SACM stimulation and measured after 90 mins by UPLC-MS/MS analysis (reference value: 40 +/- 9 pg/ml); format: functional; settings: time 105 min, 1.75 h
Macrophage cell line [16] = test: Effect on lipid mediator formation in human M2-like phenotype MDM cells by measuring EPA formation at 10 uM pre-incubated for 15 mins followed by SACM stimulation and measured after 90 mins by UPLC-MS/MS analysis (reference value: 23813 +/- 1138 pg/ml); format: functional; settings: time 105 min, 1.75 h
Macrophage cell line [17] = test: Effect on lipid mediator formation in human M1-like phenotype MDM cells by measuring 15-HEPE formation at 10 uM pre-incubated for 15 mins followed by SACM stimulation and measured after 90 mins by UPLC-MS/MS analysis (reference value: 57 +/- 10 pg/ml); format: functional; settings: time 105 min, 1.75 h

## COc1ccc(C2=C/C(=C/c3ccc(O)cc3O)C(=O)O2)cc1
Macrophage cell line [1]
  Activity: 3416 pg/mL
Macrophage cell line [2]
  Activity: 116%
Macrophage cell line [3]
  Activity: 9%
Macrophage cell line [4]
  Activity: 55 pg/mL
Macrophage cell line [5]
  Activity: 112%
Macrophage cell line [6]
  Activity: 479 pg/mL
Macrophage cell line [7]
  Activity: 93 pg/mL
Macrophage cell line [8]
  Activity: 106%
[9]
  Activity: 71.5%
Macrophage
  Activity: Non-Toxic
Macrophage cell line [10]
  Activity: 106%
Macrophage cell line [11]
  Activity: 22 pg/mL
Macrophage cell line [12]
  Activity: 3796 pg/mL
Macrophage cell line [13]
  Activity: 16 pg/mL
Macrophage cell line [14]
  Activity: 8152 pg/mL
Macrophage cell line [15]
  Activity: 37 pg/mL
Macrophage cell line [16]
  Activity: 24465 pg/mL
Macrophage cell line [17]
  Activity: 55 pg/mL

## Oc1ccc(CCC2CCC(c3ccc(O)cc3)CO2)cc1 (stereo unspecified)
Macrophage cell line [1]
  Activity: 3850 pg/mL
Macrophage cell line [2]
  Activity: 108%
Macrophage cell line [3]
  Activity: 25%
Macrophage cell line [4]
  Activity: 102 pg/mL
Macrophage cell line [5]
  Activity: 96%
Macrophage cell line [6]
  Activity: 751 pg/mL
Macrophage cell line [7]
  Activity: 88 pg/mL
Macrophage cell line [8]
  Activity: 135%
[9]
  Activity: 103%
Macrophage
  Activity: Non-Toxic
Macrophage cell line [10]
  Activity: 107%
Macrophage cell line [11]
  Activity: 71 pg/mL
Macrophage cell line [12]
  Activity: 4047 pg/mL
Macrophage cell line [13]
  Activity: 37 pg/mL
Macrophage cell line [14]
  Activity: 6992 pg/mL
Macrophage cell line [15]
  Activity: 36 pg/mL
Macrophage cell line [16]
  Activity: 28427 pg/mL
Macrophage cell line [17]
  Activity: 55 pg/mL
